The values that follow come from US10065990B2, “Cyclic peptide compound, and preparation method, pharmaceutical composition and use thereof” (HANGZHOU GUANYU BIO-MEDICAL CO., LTD, priority 2013, dated 2018).

One assay has as its target T1, HDAC11 (Homo sapiens, UniProt Q96DB2).
T1 sequence (Q96DB2 1-347): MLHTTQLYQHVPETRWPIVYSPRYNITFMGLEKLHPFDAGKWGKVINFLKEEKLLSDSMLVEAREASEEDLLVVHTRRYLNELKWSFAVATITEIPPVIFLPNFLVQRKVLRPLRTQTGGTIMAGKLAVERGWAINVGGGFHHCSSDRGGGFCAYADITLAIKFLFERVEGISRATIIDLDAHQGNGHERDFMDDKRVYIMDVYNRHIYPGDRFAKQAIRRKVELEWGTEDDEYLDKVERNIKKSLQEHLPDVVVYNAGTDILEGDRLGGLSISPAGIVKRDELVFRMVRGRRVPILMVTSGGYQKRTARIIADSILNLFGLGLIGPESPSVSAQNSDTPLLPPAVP
Kind of assay: HDAC biochemical activity measurement (fluorescent substrate deacetylation).

For a further assay, the target named is HDAC1 (Homo sapiens, UniProt Q13547). Described as above.
HDAC1, sequence (Q13547 whole entry, species assumed): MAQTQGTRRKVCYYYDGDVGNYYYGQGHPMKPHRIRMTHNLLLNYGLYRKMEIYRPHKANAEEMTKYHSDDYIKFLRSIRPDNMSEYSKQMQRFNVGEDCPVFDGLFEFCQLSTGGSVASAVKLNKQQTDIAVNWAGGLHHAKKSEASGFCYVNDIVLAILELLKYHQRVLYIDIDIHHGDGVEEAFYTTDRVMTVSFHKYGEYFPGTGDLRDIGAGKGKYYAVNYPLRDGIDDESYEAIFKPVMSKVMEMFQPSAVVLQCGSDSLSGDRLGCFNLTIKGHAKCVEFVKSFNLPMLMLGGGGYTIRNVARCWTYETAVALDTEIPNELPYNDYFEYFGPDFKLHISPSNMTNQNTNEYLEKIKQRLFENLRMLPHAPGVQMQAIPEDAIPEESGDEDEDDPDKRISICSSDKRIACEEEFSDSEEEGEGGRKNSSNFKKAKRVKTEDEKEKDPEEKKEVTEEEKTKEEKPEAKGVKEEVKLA
The target of another assay is T2, HDAC7 (Homo sapiens, UniProt Q8WUI4).
T2 sequence (Q8WUI4 1-952): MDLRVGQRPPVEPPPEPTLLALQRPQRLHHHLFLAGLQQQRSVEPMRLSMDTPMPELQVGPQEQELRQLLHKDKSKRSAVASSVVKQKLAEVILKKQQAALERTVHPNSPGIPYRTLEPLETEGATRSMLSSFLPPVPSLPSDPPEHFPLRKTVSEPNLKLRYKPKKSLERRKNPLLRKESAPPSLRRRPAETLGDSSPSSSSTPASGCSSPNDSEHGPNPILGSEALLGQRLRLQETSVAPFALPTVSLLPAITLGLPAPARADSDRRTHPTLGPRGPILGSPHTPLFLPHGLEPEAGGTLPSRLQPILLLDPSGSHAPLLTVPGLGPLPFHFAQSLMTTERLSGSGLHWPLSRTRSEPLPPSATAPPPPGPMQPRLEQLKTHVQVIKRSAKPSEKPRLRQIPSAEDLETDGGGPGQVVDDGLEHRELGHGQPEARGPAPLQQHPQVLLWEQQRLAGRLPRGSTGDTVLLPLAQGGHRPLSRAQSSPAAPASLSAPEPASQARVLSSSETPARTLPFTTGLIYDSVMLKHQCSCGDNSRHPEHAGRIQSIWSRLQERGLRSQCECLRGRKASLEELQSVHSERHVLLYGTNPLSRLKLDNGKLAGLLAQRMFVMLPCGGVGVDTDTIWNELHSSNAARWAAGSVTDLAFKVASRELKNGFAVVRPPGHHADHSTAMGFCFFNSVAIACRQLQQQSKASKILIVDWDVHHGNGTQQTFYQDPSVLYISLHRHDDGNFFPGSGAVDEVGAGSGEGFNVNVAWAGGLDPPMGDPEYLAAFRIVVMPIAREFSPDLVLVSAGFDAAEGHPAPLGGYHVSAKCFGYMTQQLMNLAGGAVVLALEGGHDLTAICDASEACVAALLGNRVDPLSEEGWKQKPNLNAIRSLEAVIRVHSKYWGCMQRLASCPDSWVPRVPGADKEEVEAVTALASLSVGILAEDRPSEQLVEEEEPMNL
The description is as above. The following applies: HDAC7; 37° C. 30 minutes.

Assay [1] deals with SGC-7901 (human gastric cancer cells). In words: MTT cancer cell growth inhibition. The following applies: MTT, 72 hours incubation, SGC-7901 cells, read-out: GI50 SGC-7901. The format is cell-based. In a few lines: (§1)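 Following overnight attachment of 1500 cells per well, each line was exposed to test drug (final 10^−5 to 10^−10 M) for 72 h in a humidified 37° C., 5% CO2 incubator. Four hours with MTT, DMSO dissolution of formazan, and a 570 nm reading yielded viability data used for GI50.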

Assay [2] has as its system A549 (human lung cancer cells). Kind of assay: MTT cancer cell growth inhibition. It is filed as cell-based. The settings on record: MTT, 72 hours incubation, read-out: GI50 A54. The gist of the method: as §1
Assay [3] deals with KBM5-T315I (human chronic myelogenous leukemia). In words: MTT cancer cell growth inhibition. The format is cell-based. The following applies: MTT, 72 hours incubation, KBM5-T315I cells, read-out: GI50 KBM5-T315I. The gist of the method:
as §1

Assay [4] concerns Huh-7 (human hepatoma cells). In words: MTT cancer cell growth inhibition. The format is cell-based. The following applies: MTT, 72 hours incubation, Huh-7 cells, read-out: GI50 Huh-7. The gist of the method: as §1
Assay [5] relates to MCF-7 (human breast cancer cells). In words: MTT cancer cell growth inhibition. It is filed as cell-based. The following applies: 72 hours incubation, read-out: GI50 MCF. In a few lines: as §1
In assay [6] the test system is MOLT-4 (human acute lymphoblastic leukemia cells). Kind of assay: MTT cancer cell growth inhibition. It is filed as cell-based. The following applies: MTT, 72 hours incubation, read-out: GI50 Mol. In a few lines:
as §1

For assay [7], the system named is MDA-MB-231 (breast cancer cells). In words: MTT cancer cell growth inhibition. The format is cell-based. In a few lines: as §1
Assay [8] deals with lncap (prostate cancer cells). Kind of assay: MTT cancer cell growth inhibition. The format is cell-based. The settings on record: MTT, 72 hours incubation, read-out: GI50 lnca. The gist of the method:
as §1

Assay [9] relates to PANC-1 (Pac-1, human pancreatic cancer cells). Kind of assay: MTT cancer cell growth inhibition. It is filed as cell-based. The settings on record: MTT, 72 hours incubation, read-out: GI50 PAN. The gist of the method:
as §1

A further assay has as its target HDAC2 (Homo sapiens, UniProt Q92769). In words: HDAC biochemical activity measurement (fluorescent substrate deacetylation). The settings on record: 37° C. 30 minutes.
Setting [10] is: HDAC1, 37° C. 30 minutes, read-out: IC50 HDAC1.
Where [11] appears, read: Homo sapiens, A549, 72 h, A549 cells.
The mark [12] stands for this setting: Homo sapiens, MCF7, 72 h, MCF-7 cells.
The mark [13] stands for this setting: Homo sapiens, MOLT-4, 72 h, MOLT-4 cells.
[14] abbreviates: Homo sapiens, MDA-MB-231, 72 h, read-out: GI50 MDA-MB-231, MTT, 72 hours incubation, MDA-MB-231 cells.
Setting [15] is: Homo sapiens, LNCaP, 72 h, lncap cells.
Setting [16] is: Homo sapiens, PANC-1, 72 h, PANC-1 cells.
[17] abbreviates: read-out: IC50 HDAC11, HDAC11, 37° C. 30 minutes.
Where [18] appears, read: Table 3, column C, read-out: IC50 HDAC1, C (six-membered ring with substituents).

Like-named read-outs stand apart in the source and are kept apart here.
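Throughout, for IC50 HDAC1, C (six-membered ring with substituents): fluorogenic acetyl-lysine substrate (20 µM) deacetylated by HDAC1, then developer releases fluorophore read at 360 nm excitation and 460 nm emission, inhibitor incubated 30 min at 37 °C.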
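Throughout, for IC50 HDAC1: fluorogenic acetyl-lysine substrate (20 µM) deacetylated by HDAC1, then developer releases fluorophore read at 360 nm excitation and 460 nm emission, inhibitor incubated 30 min at 37 °C.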
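Throughout, for IC50 HDAC7: fluorogenic deacetylation assay using acetyl-lysine substrate at 20 µM, enzyme and compound incubated 30 min at 37 °C, then developer added, fluorescence read at 360/460 nm.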

HDAC2, sequence (Q92769 whole entry, species assumed): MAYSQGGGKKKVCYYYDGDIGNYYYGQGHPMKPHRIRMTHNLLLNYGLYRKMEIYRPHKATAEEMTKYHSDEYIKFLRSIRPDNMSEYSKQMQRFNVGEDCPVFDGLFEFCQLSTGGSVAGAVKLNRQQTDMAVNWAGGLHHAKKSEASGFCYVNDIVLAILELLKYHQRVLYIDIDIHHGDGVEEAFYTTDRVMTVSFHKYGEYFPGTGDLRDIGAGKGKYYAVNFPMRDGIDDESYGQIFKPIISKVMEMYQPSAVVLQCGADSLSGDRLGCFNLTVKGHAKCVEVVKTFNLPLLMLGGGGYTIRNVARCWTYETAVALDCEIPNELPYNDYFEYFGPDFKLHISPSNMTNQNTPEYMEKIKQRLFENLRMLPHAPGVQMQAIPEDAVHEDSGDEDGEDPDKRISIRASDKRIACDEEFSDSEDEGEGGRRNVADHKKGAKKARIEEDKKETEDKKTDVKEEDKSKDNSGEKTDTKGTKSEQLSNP

In general, IC50 refers to the midpoint of a concentration-inhibition curve. As a reminder, the GI50 is the concentration at which growth is held to half of that of the control. As to `C/C=C1\NC(=O)c2nc(ccc2SC)CNC(=O)C[C@@H](/C=C/CCSC(=O)CCCCCCC)OC(=O)[C@H](C(C)C)NC1=O` [Compound 147], the 50% inhibitory concentration (IC50) is 86 nM against HDAC11, 61 nM at HDAC1 (setting [10]) and 41 nM at HDAC2. Further, at HDAC7, the “IC50 HDAC7” value was “no activity”. For the same compound, the GI50 stood at 45 nM in assay [1] (Homo sapiens, SGC-7901, 72 h); 30 nM in assay [2] (setting [11]); 26 nM in assay [3] (Homo sapiens, 72 h); 57 nM in assay [4] (Homo sapiens, Huh-7, 72 h); 40 nM in [5] (setting [12]); 80 nM in assay [6] (setting [13]). For the same compound, the results for the GI50 in assay [7] (setting [14]), in [8] (setting [15]) and in [9] (setting [16]) were 78 nM, 50 nM and 50 nM, respectively.
Take `C/C=C1\NC(=O)c2cc(F)cc(n2)CNC(=O)C[C@@H](/C=C/CCSC(=O)CCCCCCC)OC(=O)[C@H](C)NC1=O` [Compound 61]: the IC50 turned out to be 83 nM on HDAC11 (setting [17]), 13 nM on HDAC1 (setting [10]), 13 nM at HDAC1 (setting [18]) and 38 nM on HDAC2. Moreover, the “IC50 HDAC7” value against HDAC7 is recorded as “no activity”. Besides, the GI50 in assay [1] (Homo sapiens, SGC-7901, 72 h) was 38 nM; in assay [2] (Homo sapiens, A549, 72 h), 30 nM; in assay [3] (Homo sapiens, 72 h), 94 nM; in assay [4] (Homo sapiens, Huh-7, 72 h), 38 nM; in [5] (Homo sapiens, MCF7, 72 h) it was 90 nM; in assay [6] (Homo sapiens, MOLT-4, 72 h), 30 nM. Besides, the GI50 in assay [7] (setting [14]) came to 38 nM; in assay [8] (Homo sapiens, LNCaP, 72 h), 30 nM; in assay [9] (Homo sapiens, PANC-1, 72 h), 60 nM.
With `C/C=C1\NC(=O)c2cc(SC)cc(n2)CNC(=O)C[C@@H](/C=C/CCSC(=O)CCCCCC)OC(=O)[C@H](C(C)C)NC1=O` [Compound 151], the IC50 amounted to 95 nM against HDAC11, 61 nM at HDAC1 (setting [10]) and 24 nM against HDAC2. Also, the “IC50 HDAC7” value against HDAC7 is on record as “no activity”. Moreover, the GI50 is 36 nM in [1] (Homo sapiens, SGC-7901, 72 h); 40 nM in assay [2] (setting [11]); 22 nM in assay [3] (Homo sapiens, 72 h); 35 nM in assay [4] (Homo sapiens, Huh-7, 72 h); 40 nM in assay [5] (setting [12]); 90 nM in [6] (setting [13]). The concentration for 50% growth inhibition (GI50) was determined as 37 nM in [7] (setting [14]), 70 nM in assay [8] (setting [15]) and 40 nM in [9] (setting [16]).
For the compound `C/C=C1\NC(=O)c2ncc(SC)c(n2)CNC(=O)C[C@@H](/C=C/CCSC(C)=O)OC(=O)[C@H](C(C)C)NC1=O` [Compound 217], the values for the IC50 on HDAC11 (setting [17]), at HDAC1 (setting [10]) and at HDAC2 were 93 nM, 35 nM and 43 nM, respectively. In addition, on HDAC7, the “IC50 HDAC7” value was “no activity”. Further, the GI50 in assay [1] worked out at 28 nM; in [2] (A549 cells) it was 70 nM; in [3] it was 83 nM; in assay [4], 19 nM; in assay [5] (MCF-7 cells) it was 60 nM; in [6] (MOLT-4 cells), 90 nM. Also, the concentration for 50% growth inhibition (GI50) in assay [7] (read-out: GI50 MDA-MB-231, MTT, 72 hours incubation, MDA-MB-231 cells) was 19 nM; in [8] (lncap cells) it was 30 nM; in [9] (PANC-1 cells) it was 70 nM.
Consider `C/C=C1\NC(=O)c2cc(F)cc(n2)CNC(=O)C[C@@H](/C=C/CCSC(=O)CCCC)OC(=O)[C@H](C(C)C)NC1=O` [Compound 40], for which the IC50 on HDAC11 (setting [17]) turned out to be 96 nM; at HDAC1 (setting [10]), 43 nM; on HDAC1 (setting [18]), 43 nM; against HDAC2, 53 nM. Besides, the “IC50 HDAC7” value at HDAC7 is “no activity”. The concentration for 50% growth inhibition (GI50) came to 45 nM in assay [1] (Homo sapiens, SGC-7901, 72 h); 40 nM in assay [2] (Homo sapiens, A549, 72 h); 55 nM in assay [3] (Homo sapiens, 72 h); 35 nM in assay [4] (Homo sapiens, Huh-7, 72 h); 50 nM in [5] (Homo sapiens, MCF7, 72 h); 30 nM in assay [6] (Homo sapiens, MOLT-4, 72 h). Further, the GI50 in assay [7] (setting [14]) turned out to be 35 nM; in assay [8] (Homo sapiens, LNCaP, 72 h) it was 30 nM; in [9] (Homo sapiens, PANC-1, 72 h), 70 nM.
As for `C/C=C1\NC(=O)c2ccc(SC)c(n2)CNC(=O)C[C@@H](/C=C/CCSC(=O)CCCCCCC)OC(=O)[C@H](Cc2ccccc2)NC1=O` [Compound 191], the IC50 at HDAC11 was determined as 85 nM; on HDAC1 (setting [10]), 92 nM; against HDAC2 it was 36 nM. For the same compound, the “IC50 HDAC7” value on HDAC7 is reported as “no activity”. The GI50 in [1] (Homo sapiens, SGC-7901, 72 h) was 33 nM; in assay [2] (setting [11]) it was 70 nM; in assay [3] (Homo sapiens, 72 h) it was 32 nM; in assay [4] (Homo sapiens, Huh-7, 72 h) it was 89 nM; in assay [5] (setting [12]), 170 nM; in [6] (setting [13]), 50 nM. Besides, the GI50 in [7] (setting [14]) is 52 nM; in assay [8] (setting [15]), 310 nM; in assay [9] (setting [16]), 50 nM.
`C=C1NC(=O)c2cc(SC)cc(n2)CNC(=O)C[C@@H](/C=C/CCSC(C)=O)OC(=O)[C@H](C(C)C)NC1=O` [Compound 205]: the IC50 against HDAC11 was determined as 77 nM; at HDAC1 (setting [10]), 91 nM; against HDAC2, 52 nM. The “IC50 HDAC7” value on HDAC7 is listed as “no activity”. The 50% growth inhibitory concentration (GI50) in assay [1] (Homo sapiens, SGC-7901, 72 h) worked out at 59 nM; in assay [2] (setting [11]) it was 50 nM; in assay [3] (Homo sapiens, 72 h), 27 nM; in assay [4] (Homo sapiens, Huh-7, 72 h) it was 47 nM; in assay [5] (setting [12]), 70 nM; in assay [6] (setting [13]), 50 nM. The GI50 in assay [7] (setting [14]) was 39 nM; in [8] (setting [15]) it was 60 nM; in assay [9] (setting [16]), 30 nM.
